One assay has as its target T1, hα2A receptor (Homo sapiens, UniProt P08913).
T1 construct: expressed in transfected cells
T1 sequence (P08913 1-465): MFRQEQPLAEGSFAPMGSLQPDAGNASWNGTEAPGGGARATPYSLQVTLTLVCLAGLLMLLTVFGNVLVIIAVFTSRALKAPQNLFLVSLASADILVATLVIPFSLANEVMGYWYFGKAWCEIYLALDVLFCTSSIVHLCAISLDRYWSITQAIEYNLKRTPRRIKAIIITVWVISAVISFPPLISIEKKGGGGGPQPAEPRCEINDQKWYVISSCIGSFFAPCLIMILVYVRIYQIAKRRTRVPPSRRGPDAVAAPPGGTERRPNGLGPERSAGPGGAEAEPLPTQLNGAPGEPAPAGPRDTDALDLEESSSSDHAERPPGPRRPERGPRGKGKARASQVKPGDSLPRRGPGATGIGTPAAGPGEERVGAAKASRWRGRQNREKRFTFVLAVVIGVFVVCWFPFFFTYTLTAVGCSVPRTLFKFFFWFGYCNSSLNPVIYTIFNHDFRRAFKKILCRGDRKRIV
Kind of assay: Radioligand binding experiment for hα2A receptor ([3H]-raulwolscine, CHO cell membranes). Particulars: read-out: h-α2A pIC50 (converted).

The target of a further assay is T2, hα2C receptor (Homo sapiens, UniProt P18825).
T2 construct: expressed in transfected cells
T2 sequence (P18825 1-462): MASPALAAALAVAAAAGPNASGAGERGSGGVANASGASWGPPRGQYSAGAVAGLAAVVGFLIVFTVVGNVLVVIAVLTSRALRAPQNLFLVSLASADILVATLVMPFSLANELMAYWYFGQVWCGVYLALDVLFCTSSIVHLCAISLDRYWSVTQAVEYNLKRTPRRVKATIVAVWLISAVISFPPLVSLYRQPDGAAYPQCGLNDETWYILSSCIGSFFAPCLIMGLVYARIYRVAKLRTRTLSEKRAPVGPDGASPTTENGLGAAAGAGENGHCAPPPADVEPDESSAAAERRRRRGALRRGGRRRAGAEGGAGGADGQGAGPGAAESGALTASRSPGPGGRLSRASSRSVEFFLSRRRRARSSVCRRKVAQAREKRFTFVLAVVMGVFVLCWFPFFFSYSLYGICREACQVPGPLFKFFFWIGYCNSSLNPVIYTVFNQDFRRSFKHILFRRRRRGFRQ
Kind of assay: Radioligand binding experiment for α2C-adrenoceptor ([3H]-raulwolscine, CHO cell membranes). Particulars: read-out: h-α2C pIC50 (converted).

Another assay addresses T3, 5HT-Transporter (Homo sapiens, UniProt P31645).
T3 construct: Human platelet membranes (Oceanix Biosciences Corporation, Hanover, Md., USA) were thawed; tissue Oceanix Biosciences Corporation; host or cells: human platelet membranes
The assay is described as follows: Binding experiment for the 5HT-transporter ([3H]paroxetine, human platelet membranes). Particulars: [3H]paroxetine 0.5 nM, read-out: h-5HTT pIC50 (converted).

[1] abbreviates: [3H]raulwolscine 1 nM, membranes of CHO cells transfected with human α2A receptor.
Setting [2] is: [3H]raulwolscine 1 nM, membranes of CHO cells transfected with human α2C receptor.

Each structure is given as a SMILES string. Read-outs that look alike come from different tables or passages of the source. Bounds are passed on as bounds.

T3 sequence (P31645 whole entry): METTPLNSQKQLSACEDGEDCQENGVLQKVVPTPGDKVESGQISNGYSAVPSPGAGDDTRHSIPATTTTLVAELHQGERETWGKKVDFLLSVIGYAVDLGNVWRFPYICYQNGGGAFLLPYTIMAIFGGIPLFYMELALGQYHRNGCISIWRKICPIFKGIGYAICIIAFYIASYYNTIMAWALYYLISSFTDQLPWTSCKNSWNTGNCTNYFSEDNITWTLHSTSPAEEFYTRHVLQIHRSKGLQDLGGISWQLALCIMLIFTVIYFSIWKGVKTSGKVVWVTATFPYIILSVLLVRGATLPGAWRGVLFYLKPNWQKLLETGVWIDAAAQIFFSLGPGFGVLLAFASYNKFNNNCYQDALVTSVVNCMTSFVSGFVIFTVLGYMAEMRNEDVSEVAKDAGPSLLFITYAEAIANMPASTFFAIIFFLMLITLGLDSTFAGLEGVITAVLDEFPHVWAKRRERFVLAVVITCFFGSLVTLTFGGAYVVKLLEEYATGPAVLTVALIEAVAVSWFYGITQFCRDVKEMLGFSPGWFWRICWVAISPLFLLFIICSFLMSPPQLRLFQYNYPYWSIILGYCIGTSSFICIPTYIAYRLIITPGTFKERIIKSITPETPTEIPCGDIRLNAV

As for `NCCCn1ccnc(NC2CCN(CCOc3ccccc3)CC2)c1=O` [Compound 1-1], the IC50 on hα2A receptor (setting [1]) was 126 nM; on hα2C receptor (setting [2]) it was 7.94 nM; at 5HT-Transporter, > 10000 nM.

For the compound `NCc1ccc(Cn2ccnc(NC3CCN(CCOc4ccccc4)CC3)c2=O)cc1` [Compound 1-2], the IC50 at hα2A receptor (setting [1]) is 15.8 nM; on hα2C receptor (setting [2]) it was 1.58 nM; at 5HT-Transporter it was 7940 nM.

Take `CN(C)CCn1ccnc(NC2CCN(CCOc3ccccc3)CC2)c1=O` [Compound 1-3]: the figures for the IC50 on hα2A receptor (setting [1]), at hα2C receptor (setting [2]) and at 5HT-Transporter were 158 nM, 20 nM and > 10000 nM, respectively.

`CN(C)CCCn1ccnc(NC2CCN(CCOc3ccccc3)CC2)c1=O` [Compound 1-4]: the IC50 is 200 nM on hα2A receptor (setting [1]), 3.98 nM at hα2C receptor (setting [2]) and > 10000 nM on 5HT-Transporter.

Turning to `CN(C)C(=O)Cn1ccnc(NC2CCN(CCOc3ccccc3)CC2)c1=O` [Compound 1-5], the results for the IC50 on hα2A receptor (setting [1]), at hα2C receptor (setting [2]) and at 5HT-Transporter were 501 nM, 39.8 nM and > 10000 nM, respectively.

On to `CN(C(=O)Cn1ccnc(NC2CCN(CCOc3ccccc3)CC2)c1=O)C1CCCCC1` [Compound 1-6], for which the IC50 was 126 nM on hα2A receptor (setting [1]), 2 nM at hα2C receptor (setting [2]) and 7940 nM at 5HT-Transporter.

Consider `C#CCN(C)C(=O)Cn1ccnc(NC2CCN(CCOc3ccccc3)CC2)c1=O` [Compound 1-7], for which the IC50 was 251 nM at hα2A receptor (setting [1]), 12.6 nM at hα2C receptor (setting [2]) and > 10000 nM at 5HT-Transporter.

`O=C(Cn1ccnc(NC2CCN(CCOc3ccccc3)CC2)c1=O)Nc1ccccc1` [Compound 1-8]: the IC50 on hα2A receptor (setting [1]) was 158 nM; on hα2C receptor (setting [2]), 5.01 nM; at 5HT-Transporter it was 6310 nM.

In the case of `CN(C(=O)Cn1ccnc(NC2CCN(CCOc3ccccc3)CC2)c1=O)c1ccccc1` [Compound 1-9], the IC50 on hα2A receptor (setting [1]) was 100 nM; at hα2C receptor (setting [2]), 3.16 nM; at 5HT-Transporter, 3980 nM.

With `O=C(Cn1ccnc(NC2CCN(CCOc3ccccc3)CC2)c1=O)Nc1ccc(F)cc1` [Compound 1-10], the IC50 at hα2A receptor (setting [1]) was 158 nM; at hα2C receptor (setting [2]) it was 3.98 nM.

As to `O=C(Cn1ccnc(NC2CCN(CCOc3ccccc3)CC2)c1=O)NCc1ccccc1` [Compound 1-11], the IC50 is 251 nM on hα2A receptor (setting [1]), 6.31 nM on hα2C receptor (setting [2]) and 7940 nM at 5HT-Transporter.

Consider `O=c1c(NC2CCN(CCOc3ccccc3)CC2)nccn1-c1cccc(NCc2ccccc2)c1` [Compound 1-12], for which the IC50 on hα2A receptor (setting [1]) is 50.1 nM; at hα2C receptor (setting [2]), 3.98 nM; at 5HT-Transporter, 2510 nM.

As to `CN(Cc1ccccc1)C(=O)Cn1ccnc(NC2CCN(CCOc3ccccc3)CC2)c1=O` [Compound 1-13], the figures for the IC50 at hα2A receptor (setting [1]), on hα2C receptor (setting [2]) and on 5HT-Transporter were 126 nM, 3.98 nM and 5010 nM, respectively.

As for `O=C(Cn1ccnc(NC2CCN(CCOc3ccccc3)CC2)c1=O)NCc1ccc(F)cc1` [Compound 1-14], the results for the IC50 on hα2A receptor (setting [1]), on hα2C receptor (setting [2]) and at 5HT-Transporter were 251 nM, 2.51 nM and 7940 nM, respectively.

Consider `O=C(Cn1ccnc(NC2CCN(CCOc3ccccc3)CC2)c1=O)NCCc1ccccc1` [Compound 1-15], for which the IC50 on hα2A receptor (setting [1]) was 251 nM; at hα2C receptor (setting [2]), 3.16 nM.

Consider `CN(CCc1ccccc1)C(=O)Cn1ccnc(NC2CCN(CCOc3ccccc3)CC2)c1=O` [Compound 1-16], for which the figures for the IC50 at hα2A receptor (setting [1]), at hα2C receptor (setting [2]) and on 5HT-Transporter were 200 nM, 7.94 nM and > 10000 nM, respectively.

For `O=C(Cn1ccnc(NC2CCN(CCOc3ccccc3)CC2)c1=O)NCCCc1ccccc1` [Compound 1-17], the IC50 at hα2A receptor (setting [1]) was 316 nM; at hα2C receptor (setting [2]), 12.6 nM; on 5HT-Transporter it was 2510 nM.

Turning to `CCCCN(Cc1ccccc1)C(=O)Cn1ccnc(NC2CCN(CCOc3ccccc3)CC2)c1=O` [Compound 1-18], the IC50 at hα2A receptor (setting [1]) is 126 nM; on hα2C receptor (setting [2]) it was 6.31 nM; on 5HT-Transporter, > 10000 nM.

As to `O=C(Cn1ccnc(NC2CCN(CCOc3ccccc3)CC2)c1=O)NCC(c1ccccc1)c1ccccc1` [Compound 1-19], the figures for the IC50 at hα2A receptor (setting [1]), at hα2C receptor (setting [2]) and at 5HT-Transporter were 158 nM, 5.01 nM and 3160 nM, respectively.

For the compound `CC(C)(C)OC(=O)NCCCn1ccnc(NC2CCN(CCOc3ccccc3)CC2)c1=O` [Compound 1-20], the IC50 at hα2A receptor (setting [1]) is 126 nM; on hα2C receptor (setting [2]), 2.51 nM; on 5HT-Transporter, 6310 nM.

Take `CN(C)CCN(Cc1ccccc1)C(=O)Cn1ccnc(NC2CCN(CCOc3ccccc3)CC2)c1=O` [Compound 1-21]: the IC50 on hα2A receptor (setting [1]) was 20 nM; on hα2C receptor (setting [2]), 0.794 nM; at 5HT-Transporter, 1580 nM.

In the case of `O=C(Cn1ccnc(NC2CCN(CCOc3ccccc3)CC2)c1=O)N(CCN1CCCC1)Cc1ccccc1` [Compound 1-23], the values for the IC50 on hα2A receptor (setting [1]) and on hα2C receptor (setting [2]) were 31.6 nM and 0.501 nM, respectively.

As to `O=C(Cn1ccnc(NC2CCN(CCOc3ccccc3)CC2)c1=O)N(CCN1CCCC1)Cc1ccc(F)cc1` [Compound 1-24], the IC50 was 15.8 nM at hα2A receptor (setting [1]), 0.316 nM at hα2C receptor (setting [2]) and 5010 nM at 5HT-Transporter.

In the case of `O=c1c(NC2CCN(CCOc3ccccc3)CC2)nccn1CCN1CCCCC1` [Compound 2-1], the IC50 is 100 nM at hα2A receptor (setting [1]) and 2.51 nM on hα2C receptor (setting [2]).

In the case of `O=C(Cn1ccnc(NC2CCN(CCOc3ccccc3)CC2)c1=O)N1CCCCC1` [Compound 2-3], the IC50 was 251 nM on hα2A receptor (setting [1]), 7.94 nM on hα2C receptor (setting [2]) and > 10000 nM at 5HT-Transporter.

For the compound `O=c1c(NC2CCN(CCOc3ccccc3)CC2)nccn1-c1ccc(N2CCCCC2)cc1` [Compound 2-4], the IC50 is 200 nM on hα2A receptor (setting [1]), 20 nM on hα2C receptor (setting [2]) and 2510 nM on 5HT-Transporter.

For the compound `O=c1c(NC2CCN(CCOc3ccccc3)CC2)nccn1-c1ccc(CN2CCCCC2)cc1` [Compound 2-5], the IC50 at hα2A receptor (setting [1]) was 100 nM; on hα2C receptor (setting [2]), 1 nM; on 5HT-Transporter, 3980 nM.

On to `O=C(Cn1ccnc(NC2CCN(CCOc3ccccc3)CC2)c1=O)N1CCC(C(F)(F)F)CC1` [Compound 2-6], for which the IC50 on hα2A receptor (setting [1]) was 100 nM; at hα2C receptor (setting [2]) it was 3.98 nM; on 5HT-Transporter it was > 10000 nM.

Take `O=C(Cn1ccnc(NC2CCN(CCOc3ccccc3)CC2)c1=O)N1CCC(Cc2ccccc2)CC1` [Compound 2-7]: the IC50 on hα2A receptor (setting [1]) was 158 nM; at hα2C receptor (setting [2]) it was 5.01 nM; on 5HT-Transporter, 1000 nM.

As to `O=C(Cn1ccnc(NC2CCN(CCOc3ccccc3)CC2)c1=O)N1CCC(N2CCCC2)CC1` [Compound 2-8], the IC50 at hα2A receptor (setting [1]) is 79.4 nM; at hα2C receptor (setting [2]), 2.51 nM; on 5HT-Transporter it was > 10000 nM.

As to `O=c1c(NC2CCN(CCOc3ccccc3)CC2)nccn1-c1cccc(N2CCC(N3CCCC3)CC2)c1` [Compound 2-9], the IC50 is 7.94 nM at hα2A receptor (setting [1]), 1 nM on hα2C receptor (setting [2]) and 6310 nM on 5HT-Transporter.

On to `O=c1c(NC2CCN(CCOc3ccccc3)CC2)nccn1-c1ccc(N2CCC(N3CCCC3)CC2)cc1` [Compound 2-10], for which the IC50 at hα2A receptor (setting [1]) is 126 nM; at hα2C receptor (setting [2]), 7.94 nM; at 5HT-Transporter it was 3160 nM.

`O=C(Cn1ccnc(NC2CCN(CCOc3ccccc3)CC2)c1=O)N1CCN(Cc2ccccc2)CC1` [Compound 2-12]: the IC50 was 200 nM on hα2A receptor, 2.51 nM on hα2C receptor and 6310 nM at 5HT-Transporter.

`O=c1c(NC2CCN(CCOc3ccccc3)CC2)nccn1CCN1CCOCC1` [Compound 2-13]: the IC50 at hα2A receptor (setting [1]) was 631 nM; on hα2C receptor (setting [2]) it was 20 nM; on 5HT-Transporter, > 10000 nM.

With `O=C1c2ccccc2C(=O)N1CCCn1ccnc(NC2CCN(CCOc3ccccc3)CC2)c1=O` [Compound 2-15], the IC50 at hα2A receptor (setting [1]) is 200 nM; at hα2C receptor (setting [2]), 1.26 nM; on 5HT-Transporter, 1000 nM.

For `O=C1c2ccccc2C(=O)N1CC#CCn1ccnc(NC2CCN(CCOc3ccccc3)CC2)c1=O` [Compound 2-16], the values for the IC50 at hα2A receptor (setting [1]), at hα2C receptor (setting [2]) and at 5HT-Transporter were 501 nM, 7.94 nM and 1260 nM, respectively.

In the case of `O=c1c(NC2CCN(CCOc3ccccc3)CC2)nccn1CCCn1c(=O)[nH]c2ccccc21` [Compound 2-17], the IC50 was 126 nM at hα2A receptor (setting [1]), 1.26 nM at hα2C receptor (setting [2]) and 3160 nM at 5HT-Transporter.

In the case of `COCCn1ccnc(NC2CCN(CCOc3ccccc3)CC2)c1=O` [Compound 3-1], the IC50 at hα2A receptor (setting [1]) was 631 nM; at hα2C receptor (setting [2]), 50.1 nM; on 5HT-Transporter, > 10000 nM.

Regarding `CC(C)(C)C(=O)Cn1ccnc(NC2CCN(CCOc3ccccc3)CC2)c1=O` [Compound 5-6], the values for the IC50 at hα2A receptor (setting [1]) and on hα2C receptor (setting [2]) were 200 nM and 10 nM, respectively.

The record behind these values is patent US20090281099A1, “SUBSTITUTED PYRAZINONE DERIVATIVES FOR USE AS A MEDICINE” (priority 2006, published 2009).
